Values joined by “and” are separate entries in the source; they are usually repeats but may differ in a detail not shown here. Identical values can stand only once. “Also recorded” adds a separate entry of the source.
T1: RgCBM40 R128A (Mediterraneibacter gnavus (Ruminococcus gnavus), UniProt A7B557, R128A)
T1 sequence (A7B557 50-237 R128A): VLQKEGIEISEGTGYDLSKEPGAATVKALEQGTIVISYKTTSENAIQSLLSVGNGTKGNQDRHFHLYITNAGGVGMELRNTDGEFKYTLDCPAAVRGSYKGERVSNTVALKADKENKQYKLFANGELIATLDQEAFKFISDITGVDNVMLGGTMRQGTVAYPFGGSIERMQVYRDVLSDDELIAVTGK

T2: RgCBM40 R128A/R204A (Mediterraneibacter gnavus (Ruminococcus gnavus), UniProt A7B557, R128A/R204A)
T2 sequence (A7B557 50-237 R128A/R204A): T1 sequence (A7B557 50-237 R128A)

T3: RgCBM40 Y210A (Mediterraneibacter gnavus (Ruminococcus gnavus), UniProt A7B557, Y210A)
T3 sequence (A7B557 50-237 Y210A): T1 sequence (A7B557 50-237 R128A)

T4: RgCBM40 E126A (Mediterraneibacter gnavus (Ruminococcus gnavus), UniProt A7B557, E126A)
T4 sequence (A7B557 50-237 E126A): T1 sequence (A7B557 50-237 R128A)

T5: RgCBM40 Y116A (Mediterraneibacter gnavus (Ruminococcus gnavus), UniProt A7B557, Y116A)
T5 sequence (A7B557 50-237 Y116A): T1 sequence (A7B557 50-237 R128A)

T6: RgCBM40 R204A (Mediterraneibacter gnavus (Ruminococcus gnavus), UniProt A7B557, R204A)
T6 sequence (A7B557 50-237 R204A): T1 sequence (A7B557 50-237 R128A)

T7: RgCBM40 I95A (Mediterraneibacter gnavus (Ruminococcus gnavus), UniProt A7B557, I95A)
T7 sequence (A7B557 50-237 I95A): T1 sequence (A7B557 50-237 R128A)

B1: RgCBM40 (residues 50–237 of RgNanH), preparation for all other protein assays (ELISA) (domain or fragment, Ruminococcus gnavus ATCC 29149, UniProt A7B557 50-237, looked up)
chain: T1 sequence (A7B557 50-237 R128A)
notes: in the ELISA it was detected with anti-RgNanH antiserum

Legend:
RgCBM40 R128A = biological target: T1, RgCBM40 R128A; test: ITC of sialoglycans binding to RgCBM40 mutant R128A; design: species or system Ruminococcus gnavus ATCC 29149
Experimental: (§1) Site directed mutagenesis of RgGH33 to introduce the D282A mutation in the active site was carried out using the QuikChange kit, following the manufacturer’s instructions, Agilent (Santa Clara, CA, USA). Site-directed mutants of RgCBM40; I95A, Y116A, E126A, R128A, R204A and double mutant R128A/R204A, were obtained from NZyTech (Lisbon, Portugal). The primers are listed in Supplementary Table 4. The integrity of the RgGH33 and RgCBM40 mutants was checked by circular dichroism (CD).
(§2) Isothermal titration calorimetry (ITC) experiments were performed using the PEAQ-ITC system (Malvern, Malvern, UK) with a cell volume of 200 µl. Prior to titration protein samples were exhaustively dialysed into PBS. The ligand was dissolved in the dialysis buffer. The cell protein concentration was 115 µM (except for mutant I95A where it was 173 µM and the wild-type interaction with 6′SL where it was 230 µM) and the syringe ligand concentration was 10 mM (25 mM for Neu5Ac). Controls with titrant (sugar) injected into buffer only were subtracted from the data. Analysis was performed using Malvern software, using a single-binding site model. The stoichiometry of binding sites was set to 1.0 as this was evident from the crystal structure. Quantitative and most qualitative experiments were carried out in triplicate.

RgCBM40 [1] = biological target: T8, RgCBM40 (Mediterraneibacter gnavus (Ruminococcus gnavus), UniProt A7B557); test: ITC of sialoglycans binding to RgCBM40 wild type; design: species or system Ruminococcus gnavus ATCC 29149; conditions: RgCBM40 WT
Experimental: as §2

[2] = test system: RgCBM40 binding to LS174T MUC2; test: ELISA of RgCBM40 binding to LS174T MUC2 in competition with sugars; design: species or system Ruminococcus gnavus ATCC 29149; conditions: RgCBM40 preincubated with 1 mM free sugar overnight at 4 °C; immobilised LS174T MUC2; A450
Experimental: RgCBM40 binding to purified mucins was tested by ELISA. Mucins (100 μl of 10 μg ml^−1) were immobilised onto a high binding 96 well plate (Greiner, Stonehouse, UK) overnight at 4 °C. All subsequent steps were carried out for 1 h at room temperature. The plates were blocked with 3% (w/v) BSA, incubated with RgCBM40 (500 μg ml^−1), followed by an incubation with 1:5000 anti-RgNanH (raised in rabbit, Biogenes) then with 1:5000 anti-rabbit secondary antibody (raised in donkey) conjugated to peroxidase (GE Healthcare). Between each step, the plate was washed with 3 × 300 μl of PBS containing 0.05% (v/v) Tween 20 (PBST). Prior to detection, an additional wash step and 30 s incubation with PBST was carried out. Binding was detected using tetramethylbenzidine (TMB) visualisation solution (Biolegend, San Diego, CA, USA) which was incubated for 15 min. The reaction was stopped by addition of 2 M H2SO4 and absorbance measured at 450 nm using a plate-reader (Bench Marl Plus, Biorad), subtracting background readings at 570 nm. Negative controls including no RgCBM40 (subtracted from A450 value), no primary or no secondary antibody were carried out in parallel. For comparison between plates, values were normalised to the reading for LS174T MUC2 which was arbitrarily set at 100%. For enzymatic treatment of the mucin, LS174T MUC2 (2 mg ml^−1) was incubated with sialidases (2 µg ml^−1) overnight at 4 °C on a rotary wheel prior to immobilisation on the plate. For chemical treatment of mucin, LS174T MUC2 was incubated with 0.1 M trifluoroacetic acid (TFA) at 80 °C for 1 h, dialysed against ammonium bicarbonate (50 mM), lyophilised and redissolved in H2O. For the competition assays, RgCBM40 was incubated with 1 mM of free sugar overnight at 4 °C on a rotary wheel prior to addition to the ELISA plate as above. Experiments were carried out in triplicate.

RgCBM40 R128A/R204A = biological target: T2, RgCBM40 R128A/R204A; test: ITC of sialoglycans binding to RgCBM40 double mutant R128A/R204A; design: species or system Ruminococcus gnavus ATCC 29149
Experimental: as §1, §2

RgCBM40 Y210A = biological target: T3, RgCBM40 Y210A; test: ITC of sialoglycans binding to RgCBM40 mutant Y210A; design: species or system Ruminococcus gnavus ATCC 29149
Experimental: as §2

RgCBM40 E126A = biological target: T4, RgCBM40 E126A; test: ITC of sialoglycans binding to RgCBM40 mutant E126A; design: species or system Ruminococcus gnavus ATCC 29149
Experimental: as §1, §2

RgCBM40 Y116A = biological target: T5, RgCBM40 Y116A; test: ITC of sialoglycans binding to RgCBM40 mutant Y116A; design: species or system Ruminococcus gnavus ATCC 29149
Experimental: as §1, §2

RgCBM40 R204A = biological target: T6, RgCBM40 R204A; test: ITC of sialoglycans binding to RgCBM40 mutant R204A; design: species or system Ruminococcus gnavus ATCC 29149
Experimental: as §1, §2

RgCBM40 I95A = biological target: T7, RgCBM40 I95A; test: ITC of sialoglycans binding to RgCBM40 mutant I95A; design: species or system Ruminococcus gnavus ATCC 29149; conditions: 173 µM protein, syringe 10 mM sugar (25 mM for Neu5Ac), * = estimate only
Experimental: as §1, §2

RgCBM40 [3] = biological target: T8, RgCBM40; test: STD NMR of sialoglycans with RgCBM40 WT; design: species or system Ruminococcus gnavus ATCC 29149; conditions: 1 mM sialoglycan, 50 μM RgCBM40 WT, 288 K; 'exception' = monosaccharides for which binding was not detected
Experimental: ^1H and ^13C resonance assignment for all the sugars was performed on the bases of 1D ^1H, 2D DQF-COSY, TOCSY, HSQC and NOESY experiments run on the free ligands in unbuffered D2O, pH 7.0. For STD NMR experiments, all the samples consisted of 1 mM sialoglycans and 50 μM RgCBM40 (WT or I95A mutant) in D2O buffer solution of 10 mM Tris-d11 pH 7.8 and 100 mM NaCl (ligand: protein ratio 20:1). An STD pulse sequence that included 2.5 ms and 5 ms trim pulses and a 3 ms spoil gradient was used. Saturation was achieved applying a train of 50 ms Gaussian pulses (0.40 mW) on the f2 channel, at 0.60 p.p.m. (on-resonance experiments) and 40 p.p.m. (off-resonance experiments). The broad protein signals were removed using a 40 ms spinlock (T1ρ) filter. All the experiments were recorded at ^1H frequency of 800.23 MHz on a Bruker Avance III spectrometer equipped with a 5 mm probe TXI 800 MHz H-C/N-D-05 Z BTO, at 288 K. For all the sialoglycans in the presence of RgCBM40, an STD experiment with a saturation time of 2 s and a relaxation delay of 5 s was performed, as a first test for binding. For the confirmed binders, the STD NMR experiments were carried out at different saturation times (0.5, 1, 2, 3, 4 and 5 s) with 1 K scans and relaxation delay of 5 s, in order to obtain the binding epitope mapping. The resulting build-up curves for each proton were fitted mathematically to a mono-exponential equation (y = a×[1-exp(b×x)]), from which the initial slopes (a×b) were obtained. For each ligand, the binding epitope mapping was obtained by dividing the initial slopes by the one of the H7 proton of the corresponding sialic acid ring, to which an arbitrary value of 100% was assigned. This normalisation of the STD values allows the comparison across all the sialoglycans.

[4] = biological target: T9, LS174T MUC2 treated with trifluoroacetic acid or a sialidase to remove sialic acid (human (endogenous in LS174T), UniProt Q02817 21-5289, O-glycans with sialic acid removed by TFA or by a sialidase from C. perfringens, S. typhimurium, A. muciniphila or R. gnavus; reduced with dithiothreitol and alkylated with iodoacetamide); test: ELISA; mucins (100 µl of 10 µg ml^-1) immobilised on a 96 well plate, RgCBM40 at 500 µg ml^-1 for 1 h at room temperature, detected with rabbit anti-RgNanH and a peroxidase-conjugated secondary antibody, A450; values normalised to LS174T MUC2 = 100%; conditions: both partners purified
T9 construct: MUC2, gel-forming mucin secreted by the human LS174T cell line; also called MUC2 treated chemically (TFA) or enzymatically with a sialidase (Cp, St, Am/Ak, Rg)

binding result [4]	Molecule	Binding by ITC (in words) (RgCBM40 R128A)	Kd (RgCBM40 R128A; ITC) [mM]	Kd (RgCBM40 [1]; Kd, ITC in PBS, 115-230 μM protein in cell, syringe 10 mM sugar (25 mM for Neu5Ac), * = estimate only, Kd too high to determine)	Binding to RgCBM40 (in words) (RgCBM40 [1])	Effect of free sugar on adherence of RgCBM40 to MUC2 [2]	Binding by ITC (in words) (RgCBM40 R128A/R204A)	Kd (RgCBM40 R128A/R204A; ITC) [mM]	Binding by ITC (in words) (RgCBM40 Y210A)	Kd (RgCBM40 Y210A; ITC) [mM]	Binding by ITC (in words) (RgCBM40 E126A)	Kd (RgCBM40 E126A; ITC) [mM]	Binding by ITC (in words) (RgCBM40 Y116A)	Kd (RgCBM40 Y116A; ITC) [mM]	Binding by ITC (in words) (RgCBM40 R204A)	Kd (RgCBM40 R204A; ITC) [mM]	Kd (RgCBM40 I95A) [mM]	Binding to RgCBM40 detected by STD NMR (RgCBM40 [3])
–	CC(=O)N[C@H]1[C@H]([C@H](O)[C@H](O)CO)OC(O)(C(=O)O)C[C@@H]1O (stereo partly drawn) [Neu5Ac, N-acetylneuraminic acid]	abolished	> 25	~21 mM and ~20 mM	weak binding	no effect	abolished	> 25	abolished	> 25	abolished	> 25	abolished	> 25	abolished	> 25	~23	exception; also recorded: no interaction was observed
binds	B1	–	–	–	–	–	–	–	–	–	–	–	–	–	–	–	–	–
